Tests used:
[1] = test system: deletion mutants of rat TRPV2; experiment: Calcium mobilization in HEK293 cells expressing rat TRPV2 deletion mutants; format: cell-based; details: mutants lacking N-terminal 20, 32/33, 65/66 or C-terminal 11, 23, 32 residues
From the text: DNA molecules encoding the deletion mutants were amplified by PCR using the rat TRPV2 cDNA as the template. For amino-terminal deletions, a series N-terminal forward primers encoding an initiating methionine in frame with sequences matching adjacent regions of the desired start at residues G21 (mutant N20, SEQ ID NO:11), P33 (N32, SEQ ID NO:12), A66 (N65, SEQ ID NO:13) and V84 (N83, SEQ ID NO:14) paired with a C-terminal reverse primer were used for PCR amplification. While for carboxyl-terminal deletions, a forward N-terminal primer paired with a series C-terminal reverse primers ending at residues R706 (C51, SEQ ID NO:7), P729 (C32, SEQ ID NO:8), P738 (C23, SEQ ID NO:9) and E750 (C11, SEQ ID NO:10) with an in-frame stop codon at the terminal end of the open reading frame were used for amplification. After PCR amplification and purification, the DNA molecules encoding the deletion mutants were subcloned into the pCI-neo mammalian expression vector and the constructs were confirmed by DNA sequencing. […]
The deletion mutant constructs were then transfected into HEK293 cells using Fugene 6 reagent (Roche) as per the manufacturer's instructions. […] Calcium mobilization was triggered using Δ^9-THC or 2-APB or elevated temperature buffer and measured using either FLIPR or FLEX STATION instruments.

[2] = target: T1, rat and human TRPV2 chimera HRR (Rattus norvegicus, UniProt Q9WUD2, A110E/A257S/D189N/D73N/DEL322-322/DEL56-59/DEL67-67/E160D/E240Q/E289D/E384A/E71D/E91D/F161Y/G295D/H202G/H269S/H293L/I268T/K144R/K150Q/K353E/K51R/L151P/L192A/L245Q/L96P/M137L/M277A/N102T/N368H/N45K/N63G/P261A/P325H/P38Q/P60Y/P61R/Q129K/Q163R/Q324S/Q70P/R100S/R388L/R392K/R41G/S264I/S291R/S346A/S391P/S46F/S47A/S65G/S82N/T227S/T93A/V390I/V83A/W101K/W351C/Y323L); experiment: Calcium mobilization in HEK293 cells expressing TRPV2 chimera HRR; format: cell-based; details: expressed separately in HEK cells
T1 construct: expressed in transfected cells; host or cells: HEK293, transient, pCI-neo
T1 sequence (Q9WUD2 with tags, fused parts or gaps P38Q/R41G/N45K/S46F/S47A/K51R/DEL56-59/P60Y/P61R/N63G/S65G/DEL67-67/Q70P/E71D/D73N/S82N/V83A/E91D/T93A/L96P/R100S/W101K/N102T/A110E/Q129K/M137L/K144R/K150Q/L151P/E160D/F161Y/Q163R/D189N/L192A/H202G/T227S/E240Q/L245Q/A257S/P261A/S264I/I268T/H269S/M277A/E289D/S291R/H293L/G295D/DEL322-322/Y323L/Q324S/P325H/S346A/W351C/K353E/N368H/E384A/R388L/V390I/S391P/R392K): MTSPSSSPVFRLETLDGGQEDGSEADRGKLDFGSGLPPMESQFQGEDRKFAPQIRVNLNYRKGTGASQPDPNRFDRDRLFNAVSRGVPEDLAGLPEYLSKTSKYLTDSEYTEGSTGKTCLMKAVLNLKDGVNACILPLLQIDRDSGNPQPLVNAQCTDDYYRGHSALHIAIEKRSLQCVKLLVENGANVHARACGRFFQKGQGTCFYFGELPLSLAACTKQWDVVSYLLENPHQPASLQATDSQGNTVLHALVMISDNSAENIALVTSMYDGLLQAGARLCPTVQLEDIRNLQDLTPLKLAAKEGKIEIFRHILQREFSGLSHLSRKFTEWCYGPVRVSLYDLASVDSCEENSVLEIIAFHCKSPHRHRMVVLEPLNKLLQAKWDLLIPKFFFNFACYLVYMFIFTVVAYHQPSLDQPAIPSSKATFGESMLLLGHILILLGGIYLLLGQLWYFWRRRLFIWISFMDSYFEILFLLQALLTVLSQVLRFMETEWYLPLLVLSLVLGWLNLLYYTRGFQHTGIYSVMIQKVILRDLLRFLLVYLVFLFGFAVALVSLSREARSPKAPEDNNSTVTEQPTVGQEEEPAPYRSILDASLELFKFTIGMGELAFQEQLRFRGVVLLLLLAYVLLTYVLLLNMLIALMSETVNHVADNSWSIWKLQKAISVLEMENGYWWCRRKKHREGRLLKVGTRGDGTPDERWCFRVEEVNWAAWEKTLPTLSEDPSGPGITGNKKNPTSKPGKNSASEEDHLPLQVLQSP
Description: The deletion mutant constructs were then transfected into HEK293 cells using Fugene 6 reagent (Roche) as per the manufacturer's instructions. At 24 hours post-transfection, the cells were harvested and replated in fresh DMEM medium supplemented with 10% fetal bovine serum, 100 units/ml penicillin, and 100 μg/ml streptomycin. The cells were distributed onto poly-D-Lysine coated 96-or 384-well plates at a density of approximately 40,000 and 10,000 cells per well, respectively. At approximately 48 hours post-transfection, the medium was removed from the assay plate and replaced with Calcium 3 Dye Buffer (Molecular Devices) using the protocol available from the manufacturer. Calcium mobilization was triggered using Δ^9-THC or 2-APB or elevated temperature buffer and measured using either FLIPR or FLEX STATION instruments.
Based on the predicted topology and primary sequence features of TRPV2, TRPV2 are divided into 3 major domains: 1) the amino-terminal intracellular domain; 2) the transmembrane domain; and 3) the carboxyl-terminal intracellular domain. For a chimera, each domain can be of rat (R) or human (H) origin. Three rat and human TRPV2 chimera were constructed and tested herein. RRH (SEQ ID NO:15) was a chimera comprising rat 1-392 aa, rat 393-646 aa, and human 647-764 aa. RHR (SEQ ID NO:16) was a chimera comprising rat 1-392, human 391-646, and rat 647-761. […]

What does the source list for Delta-9-tetrahydrocannabinol [Δ^9-THC]?
response of rat TRPV2 deletion mutants to the compound [1]: still active; response of chimera HRR to the compound [2]: not active

Source: patent publication US7575882B2, “Compositions and methods for identifying modulators of TRPV2” (Janssen Pharmaceutica N. V., priority 2005, dated 2009)
